# Experimental data from PMC5171807, “Five colour variants of bright luminescent protein for real-time multicolour bioimaging” (Nature Communications, 2016).
# Biological target: T1, green eNL (GeNL) (Oplophorus gracilirostris, UniProt Q9GV45, A31E/Q38R/Q45L/L54V/A60N/K70R/V71I/A81I/F95D/L99Q/M102K/I117V/P142E/Q151K/Y165I/N193R)
# T1 construct: single-chain fusion: C-terminally truncated mNeonGreen - two-residue linker - NanoLuc (N-terminal deletion 4); N-terminal His tag; E. coli; with mNeonGreen
# Experiment: luminescence initial velocity (first […] s), Michaelis-Menten fit
# Format: biochemical
# Conditions: 10 pM enzyme; furimazine 0.025-13 μM
# T1 sequence (Q9GV45 30-196 with the stated changes): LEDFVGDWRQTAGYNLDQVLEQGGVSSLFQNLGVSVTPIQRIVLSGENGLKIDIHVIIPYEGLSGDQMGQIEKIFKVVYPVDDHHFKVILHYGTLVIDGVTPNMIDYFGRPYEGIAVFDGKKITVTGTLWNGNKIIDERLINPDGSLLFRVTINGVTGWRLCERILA
smiles,measurement,value
O=c1c(Cc2ccco2)nc2c(Cc3ccccc3)[nH]c(-c3ccccc3)cn1-2 [furimazine],Km,enzymatic parameters (Km and kcat) of the eNLs and Nluc
